Laboratory results published in patent US4237135A, “2-(4-Ethyl-1-piperazinyl)-4-phenylquinoline, process for preparation thereof, and composition thereof” (Dainippon Pharmaceutical Co., Ltd., priority 1978, dated 1980).
Like-named read-outs stand apart in the source and are kept apart here.

Legend:
[1] = system: spontaneous and methamphetamine-induced locomotor activities; assay: Neuroleptics-like activity, overall (Test 2); type: in vivo, male STD-ddY strain mice; conditions: overall conclusion
[2] = system: hypothermia induced by reserpine; assay: Anti-reserpine activity: antagonistic effect on hypothermia induced by reserpine; type: in vivo, male STD-ddY strain mice; conditions: p.o.; for ED50: Mus musculus, po, 4 h, reserpine 5 mg/kg i.p.
Procedure: Pharmacological experiments have been done on the compound of the present invention, some known and novel analogous compounds and an antidepressant on the market, as mentioned below. In the experiments, ED50 was calculated by Litchfield-Wilcoxon method. This effect was examined according to the method of […]. 2, 725 (1963)], using male STD-ddY strain mice weighing 20-25 g. […] Rectal temperature of each mouse was measured 4 hours later with a thermister (Shibaura Electric, BMG III-130).

[3] = system: catalepsy induced by reserpine; assay: Anti-reserpine activity: antagonistic effect on catalepsy induced by reserpine; type: in vivo, male STD-ddY strain mice; conditions: for ED50: Mus musculus, po, 1 h
Procedure: In the experiments, ED50 was calculated by Litchfield-Wilcoxon method. Male STD-ddY strain mice, weighing […], were used in groups of 10 mice each. […] The mice were tested for catalepsy 1 hour after the administration of test compounds. ED50 was calculated for each compound.

[4] = system: spontaneous locomotor activity; assay: Inhibitory effect on spontaneous locomotor activity; type: in vivo, male STD-ddY strain mice; conditions: for ED50: Mus musculus, po, read-out: Spontan. locomotor ED50; for Inhibition of spontaneous locomotion (in words): p.o.
Procedure: (§1) Pharmacological experiments have been done on the compound of the present invention, some known and novel analogous compounds and an antidepressant on the market, as mentioned below. In the experiments, ED50 was calculated by Litchfield-Wilcoxon method.
Male mice of STD-ddY strain, weighing 20-25 g, were used in groups of 5 mice each. Each test compound was given orally to the mice in 5 different doses, and 2 hours later the spontaneous locomotor activity of each mouse was measured for 3 minutes by means of an Animex locomotor activity meter (made by Farad Electronics). ED50 was calculated for each compound. The ED50 means the dose of test compound in which the locomotor activity was reduced to 50% of that of control group receiving saline.

[5] = system: methamphetamine-induced locomotor activity; assay: Anti-methamphetamine effect (inhibitory effect on methamphetamine-induced locomotor activity); type: in vivo, male STD-ddY strain mice; conditions: for ED50: Mus musculus, ip, read-out: Anti-methamphetamine ED50; for Antagonizing methamphetamine-induced locomotor activity (in words): i.p.
Procedure: as §1
Male STD-ddY strain mice, weighing 20-25 g, were used in groups of 10 mice each. Groups of mice were injected intraperitoneally with 4 mg/kg of methamphetamine, and 30 minutes later each test compound was injected intraperitoneally in 3 different doses. One hour after the injection of methamphetamine, locomotor activity of each mouse was measured for 10 minutes with an Animex locomotor activity meter.

antidepressant activity = assay: Antidepressant activity, overall (Test 1); type: in vivo, male STD-ddY strain mice; male Wistar strain rats; conditions: for Antidepressant activity (in words): overall conclusion
Procedure: This effect was examined according to the method of […]. 2, 725 (1963)], using male STD-ddY strain mice weighing 20-25 g. […] Rectal temperature of each mouse was measured 4 hours later with a thermister (Shibaura Electric, BMG III-130). […] Male STD-ddY strain mice, weighing […], were used in groups of 10 mice each. […] The mice were tested for catalepsy 1 hour after the administration of test compounds. ED50 was calculated for each compound. […] Male STD-ddY strain mice, weighing 20-25 g, were used in groups of 10 mice each. […] Two hours after the tetrabenazine injection, the degree of eyelid closure (ptosis) was assessed on the basis of macroscopic scoring (0: no closure of the eyelid, 1: 1/4 closure, 2: 2/4 closure, 3: 3/4 closure and 4: complete closure), essentially according to the method of P. A. J. Janssen [Arzneim. Forsch. 15, 104 (1965)]. ED50 was calcuated for each compound. […] Male Wistar strain rats, weighing 240-260 g, which had developed mouse-killing behavior after ablation of the olfactory bulb according to the method of Z. P. Horovitz [Int. J. Neuropharmacol. 5, 405 (1966)], were used in groups of 15 animals each. […] ED50 was calculated for each compound.

[6] = system: ptosis induced by tetrabenazine; assay: Anti-tetrabenazine activity: antagonistic effect on ptosis induced by tetrabenazine; type: in vivo, male STD-ddY strain mice; conditions: Mus musculus, po; tetrabenazine 70 mg/kg i.p.; Table 2
Procedure: Pharmacological experiments have been done on the compound of the present invention, some known and novel analogous compounds and an antidepressant on the market, as mentioned below. In the experiments, ED50 was calculated by Litchfield-Wilcoxon method. Male STD-ddY strain mice, weighing 20-25 g, were used in groups of 10 mice each. […] Two hours after the tetrabenazine injection, the degree of eyelid closure (ptosis) was assessed on the basis of macroscopic scoring (0: no closure of the eyelid, 1: 1/4 closure, 2: 2/4 closure, 3: 3/4 closure and 4: complete closure), essentially according to the method of P. A. J. Janssen [Arzneim. Forsch. 15, 104 (1965)]. ED50 was calcuated for each compound.

[7] = system: brain homovanillic acid (HVA); assay: Effect on brain monoamine metabolites: HVA; type: in vivo, male Wistar strain rats; conditions: 100 mg/kg p.o.; for Brain HVA, % of control: *P<0.01
Procedure: (§2) Each test compound was given orally to the rats in a dose of 100 mg/kg and, 1, 3 and 6 hours later the rats were sacrificed. […] The concentrations of the monoamine metabolites were calculated in terms of ng/g wet brain tissue and expressed as % of the concentrations of controls receiving saline.

[8] = system: mouse-killing behavior of olfactory bulb-ablated rats; assay: Suppressing effect on mouse-killing behavior in olfactory bulb-ablated rats; type: in vivo, male Wistar strain rats; conditions: Rattus norvegicus, ip, 1 h, read-out: Suppressing effect on mouse-killing behavior of olfactory bulb-ablated rats, ED50
Procedure: as §1
Male Wistar strain rats, weighing 240-260 g, which had developed mouse-killing behavior after ablation of the olfactory bulb according to the method of Z. P. Horovitz [Int. J. Neuropharmacol. 5, 405 (1966)], were used in groups of 15 animals each. Each test compound was given intraperitoneally to the rats in 6 different doses, and 1 hours later the rats were each tested as to whether they killed a mouse or not. ED50 was calculated for each compound.

[9] = system: brain 3-methoxy-4-hydroxyphenylethylene glycol sulfate (MOPEG-SO4); assay: Effect on brain monoamine metabolites: MOPEG-SO4; type: in vivo, male Wistar strain rats; conditions: 100 mg/kg p.o.; for Brain MOPEG-SO4, % of control: *P<0.01
Procedure: as §2

[10] = system: brain 5-hydroxyindoleacetic acid (5-HIAA); assay: Effect on brain monoamine metabolites: 5-HIAA; type: in vivo, male Wistar strain rats; conditions: 100 mg/kg p.o., *P<0.01
Procedure: as §2

tremorine-induced tremor = assay: Anti-tremorine activity (antagonistic effect on tremorine-induced tremor); type: in vivo, male STD-ddY strain mice; conditions: Mus musculus, po, read-out: Anti-tremorine activity ED50
Procedure: as §1
Male STD-ddY strain mice, weighing 20-25 g, were used in groups of 5 mice each. Each test compound was given orally to the mice in 5 different doses, and 2 hours later 20 mg/kg of tremorine was injected intraperitoneally. Half an hour after the injection of tremorine, each mouse was examined macroscopically for tremor severity, according to the rating scale with the scores 0, 1, 2, and 3 depending on the severity. ED50 was calculated for each compound. The ED50 means the dose of test compound in which the tremorine-induced tremor was inhibited by 50% in severity.

[11] = Table 1, read-out: Anti-reserpine activity ED50, hypothermia
[12] = p.o., reserpine 5 mg/kg i.p., Table 1, read-out: Anti-reserpine activity ED50, catalepsy
[13] = Table 2, read-out: Anti-reserpine ED50, hypothermia
[14] = p.o., reserpine 5 mg/kg i.p., Table 2, read-out: Anti-reserpine ED50, catalepsy

SMILES: CN1CCN(c2cc(-c3ccccc3)c3cc(Cl)ccc3n2)CC1.Cl.Cl [Compound 1, 6-Chloro-2-(4-methyl-1-piperazinyl)-4-phenylquinoline dihydrochloride]
- Neuroleptics-like activity (in words) [1]: not seen
- ED50 [2, 11]: 30.8 mg/kg
- Activity in antagonizing reserpine hypothermia relative to compound A ([2]; versus compound A): 5 times less active
- ED50 [3, 12]: 20 mg/kg
- Activity in antagonizing reserpine catalepsy relative to compound A ([3]; versus compound A, p.o.): 13 times less active
- ED50 ([4]; 2 hours after dosing): > 200 mg/kg
- Inhibition of spontaneous locomotion (in words) [4]: devoid of both activities
- ED50 ([5]; methamphetamine 4 mg/kg i.p.): > 30 mg/kg
- Antagonizing methamphetamine-induced locomotor activity (in words) [5]: devoid of both activities

SMILES: Clc1ccc2nc(N3CCN(c4ccccc4)CC3)cc(-c3ccccc3)c2c1 [Compound 2, 6Chloro-2-(4-phenyl-1-piperazinyl)-4-phenylquinoline]
- Neuroleptics-like activity (in words) [1]: not seen
- ED50 [2, 11]: > 100 mg/kg
- ED50 [3, 12]: > 100 mg/kg
- ED50 ([4]; 2 hours after dosing): > 200 mg/kg
- Inhibition of spontaneous locomotion (in words) [4]: devoid of both activities
- Anti-reserpine activity (in words) (antidepressant activity; hypothermia and catalepsy, p.o.): devoid of the anit-reserpine activity
- ED50 ([5]; methamphetamine 4 mg/kg i.p.): > 30 mg/kg
- Antagonizing methamphetamine-induced locomotor activity (in words) [5]: devoid of both activities

SMILES: CN1CCN(c2cc(-c3ccccc3)c3ccccc3n2)CC1 [Compound 3, 2-(4-Methyl-1-piperazinyl)-4-phenylquinoline]
- Neuroleptics-like activity (in words) [1]: comparable to compound A
- ED50 [2, 13]: 13.9 mg/kg
- ED50 [3, 14]: 4.7 mg/kg
- ED50 ([4]; 2 hours after dosing): 56.4 mg/kg
- Inhibition of spontaneous locomotion (in words) [4]: as potent as compound A
- Antidepressant activity (in words) (antidepressant activity): much less potent than the latter
- ED50 [6]: 10.4 mg/kg
- ED50 ([5]; methamphetamine 4 mg/kg i.p.): 12.9 mg/kg
- Antagonizing methamphetamine-induced locomotor activity (in words) [5]: somewhat less potent

SMILES: CCCN1CCN(c2cc(-c3ccccc3)c3ccccc3n2)CC1.Cl.Cl [Compound 4, 2-(4-n-Propyl-1-piperazinyl)-4-phenylquinoline dihydrochloride]
- ED50 [2, 13]: 13.6 mg/kg
- ED50 [3, 14]: 4.4 mg/kg
- ED50 ([4]; 2 hours after dosing): 62.2 mg/kg
- Inhibition of spontaneous locomotion (in words) [4]: as potent as compound A
- Antidepressant activity (in words) (antidepressant activity): inferior to compound A
- ED50 [6]: 8.2 mg/kg
- ED50 ([5]; methamphetamine 4 mg/kg i.p.): 13.2 mg/kg
- Antagonizing methamphetamine-induced locomotor activity (in words) [5]: somewhat less potent

SMILES: CCCCN1CCN(c2cc(-c3ccccc3)c3ccccc3n2)CC1.O=C(O)/C=C\C(=O)O.O=C(O)/C=C\C(=O)O [Compound 5, 2-(4-n-Butyl-1-piperazinyl)-4-phenylquinoline dimaleate]
- ED50 [2, 13]: 13.7 mg/kg
- ED50 [3, 14]: 6.3 mg/kg
- ED50 ([4]; 2 hours after dosing): 50.6 mg/kg
- Inhibition of spontaneous locomotion (in words) [4]: as potent as compound A
- Antidepressant activity (in words) (antidepressant activity): inferior to compound A
- ED50 [6]: 29.9 mg/kg
- ED50 ([5]; methamphetamine 4 mg/kg i.p.): 16.4 mg/kg
- Antagonizing methamphetamine-induced locomotor activity (in words) [5]: somewhat less potent

SMILES: CN(C)CCCN1c2ccccc2CCc2ccccc21 [Compound 6, 5-(3-dimethylaminopropyl)-10,11-dihydro-5H-dibenz[b,f]azepine]
- Neuroleptics-like activity (in words) [1]: not seen
- ED50 [2, 11]: 21.5 mg/kg
- ED50 [2, 13]: 21.5 mg/kg
- ED50 ([3]; read-out: Anti-reserpine ED50, catalepsy): 38.3 mg/kg
- ED50 ([3]; read-out: Anti-reserpine activity ED50, catalepsy): 38.3 mg/kg
- ED50 ([4]; 2 h): > 200 mg/kg
- Inhibition of spontaneous locomotion (in words) [4]: devoid of both activities
- Brain HVA concentration / dopamine turnover (in words) [7]: devoid of such activity
- Brain HVA, % of control ([7]; 1 hour): 110 % of control
- Brain HVA, % of control ([7]; 3 hours): 98 % of control
- ED50 [8]: 5.5 mg/kg
- Brain MOPEG-SO4 concentration / noradrenaline turnover (in words) [9]: significant decrease in brain MOPEG-SO4 concentration
- Brain MOPEG-SO4, % of control ([9]; 1 hour): 87 % of control
- Brain MOPEG-SO4, % of control ([9]; 3 hours): 80 % of control
- Brain MOPEG-SO4, % of control ([9]; 6 hours): 70 % of control
- Brain 5-HIAA, % of control ([10]; 1 hour): 88 % of control
- Brain 5-HIAA, % of control ([10]; 3 hours): 84 % of control
- Brain 5-HIAA, % of control ([10]; 6 hours): 73 % of control
- ED50 (tremorine-induced tremor): 48.3 mg/kg
- ED50 [6]: 4.9 mg/kg
- ED50 [5]: > 30 mg/kg
- Antagonizing methamphetamine-induced locomotor activity (in words) [5]: devoid of both activities

SMILES: CN(C)CCCN1c2ccccc2Sc2ccc(Cl)cc21 [Compound 7, 2chloro-10-(3-dimethylaminopropyl)phenothiazine]
- ED50 ([4]; 2 h): 7.4 mg/kg
- ED50 [5]: 1 mg/kg

SMILES: OC(CCN1CCCCC1)(c1ccccc1)C1CC2C=CC1C2 (stereo not shown) [Compound 8, 5-norbornen-2-yl-phenyl-1-piperidinepropanol]
- ED50 (tremorine-induced tremor): 11.4 mg/kg
